Assay results from article PMC5761851, “Application of a phenotypic drug discovery strategy to identify biological and chemical starting points for inhibition of TSLP production in lung epithelial cells” (PLoS ONE, 2018).

How the values were obtained:
Assay in all cases: kinase selectivity panel
Type in all cases: biochemical
Pyk2 = molecular target: T1, Pyk2 (Homo sapiens, UniProt Q14289); conditions: read-out: percentage of control activity (POC), Pyk2
T1 construct: purchased Eurofins Pharma Discovery Services (KinaseProfiler; Cerep BioPrint panel)
Summary of the method: (§1)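 Single-point screen: 10 μM, duplicate, 125-kinase panel; follow-up IC50 from 9-point titration in duplicate for chosen hits.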

IKKβ = molecular target: T2, IKKβ (Homo sapiens, UniProt O14920); conditions: read-out: percentage of control activity (POC), IKKβ
T2 construct: purchased Eurofins Pharma Discovery Services (KinaseProfiler; Cerep BioPrint panel)
T2 sequence (O14920 1-756): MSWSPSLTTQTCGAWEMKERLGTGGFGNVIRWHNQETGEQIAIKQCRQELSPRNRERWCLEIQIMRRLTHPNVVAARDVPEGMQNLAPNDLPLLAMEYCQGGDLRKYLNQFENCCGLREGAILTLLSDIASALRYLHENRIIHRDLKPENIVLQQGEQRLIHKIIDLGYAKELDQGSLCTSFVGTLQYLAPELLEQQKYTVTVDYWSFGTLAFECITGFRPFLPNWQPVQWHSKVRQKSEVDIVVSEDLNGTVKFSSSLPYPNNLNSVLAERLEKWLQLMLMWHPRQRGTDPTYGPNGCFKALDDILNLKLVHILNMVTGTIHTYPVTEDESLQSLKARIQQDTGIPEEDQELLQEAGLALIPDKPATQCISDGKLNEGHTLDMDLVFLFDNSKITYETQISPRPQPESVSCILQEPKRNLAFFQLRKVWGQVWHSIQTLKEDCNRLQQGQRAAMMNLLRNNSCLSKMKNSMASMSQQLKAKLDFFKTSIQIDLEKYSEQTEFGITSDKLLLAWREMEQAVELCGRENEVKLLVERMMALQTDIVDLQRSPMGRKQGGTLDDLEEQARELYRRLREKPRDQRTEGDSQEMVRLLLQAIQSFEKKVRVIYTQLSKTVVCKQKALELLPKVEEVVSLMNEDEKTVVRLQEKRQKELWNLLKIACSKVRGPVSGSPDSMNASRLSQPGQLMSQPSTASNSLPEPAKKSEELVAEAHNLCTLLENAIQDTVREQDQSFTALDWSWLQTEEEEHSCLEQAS
Summary of the method: as §1

eEF-2K = molecular target: T3, eEF-2K (Homo sapiens, UniProt O00418); conditions: read-out: percentage of control activity (POC), eEF-2K
T3 construct: purchased Eurofins Pharma Discovery Services (KinaseProfiler; Cerep BioPrint panel)
Summary of the method: as §1

PKA = molecular target: T4, PKA (Homo sapiens, UniProt P17612); conditions: read-out: percentage of control activity (POC), PKA
T4 construct: purchased Eurofins Pharma Discovery Services (KinaseProfiler; Cerep BioPrint panel)
Summary of the method: as §1

Flt4 = molecular target: T5, Flt4 (Homo sapiens, UniProt P35916); conditions: for remaining activity at 10 µM: read-out: percentage of control activity (POC), Flt4
T5 construct: Eurofins Pharma Discovery Services (contract assay service)
Summary of the method: as §1

Fyn = molecular target: T6, Fyn (Homo sapiens, UniProt P06241); conditions: read-out: percentage of control activity (POC), Fyn
T6 construct: purchased Eurofins Pharma Discovery Services (KinaseProfiler; Cerep BioPrint panel)
T6 sequence (P06241 whole entry): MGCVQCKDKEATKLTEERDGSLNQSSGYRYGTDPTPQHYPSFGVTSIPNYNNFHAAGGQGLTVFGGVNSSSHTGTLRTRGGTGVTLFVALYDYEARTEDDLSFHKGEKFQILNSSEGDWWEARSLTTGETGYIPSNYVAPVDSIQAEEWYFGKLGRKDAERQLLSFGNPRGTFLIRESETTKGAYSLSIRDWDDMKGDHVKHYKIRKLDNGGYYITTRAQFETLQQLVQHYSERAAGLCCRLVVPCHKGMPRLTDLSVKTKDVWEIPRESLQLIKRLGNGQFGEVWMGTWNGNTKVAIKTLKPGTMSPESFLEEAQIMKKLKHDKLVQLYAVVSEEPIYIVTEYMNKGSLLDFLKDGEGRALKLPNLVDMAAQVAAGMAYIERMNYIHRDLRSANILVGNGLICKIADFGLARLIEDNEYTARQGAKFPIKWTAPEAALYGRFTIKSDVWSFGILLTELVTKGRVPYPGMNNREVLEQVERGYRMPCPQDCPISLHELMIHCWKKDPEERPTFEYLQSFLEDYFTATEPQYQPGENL
Summary of the method: as §1

Hck = molecular target: T7, Hck (Homo sapiens, UniProt P08631); conditions: for remaining activity at 10 µM: read-out: percentage of control activity (POC), Hck
T7 construct: Eurofins Pharma Discovery Services (contract assay service)
T7 sequence (P08631 whole entry, species assumed): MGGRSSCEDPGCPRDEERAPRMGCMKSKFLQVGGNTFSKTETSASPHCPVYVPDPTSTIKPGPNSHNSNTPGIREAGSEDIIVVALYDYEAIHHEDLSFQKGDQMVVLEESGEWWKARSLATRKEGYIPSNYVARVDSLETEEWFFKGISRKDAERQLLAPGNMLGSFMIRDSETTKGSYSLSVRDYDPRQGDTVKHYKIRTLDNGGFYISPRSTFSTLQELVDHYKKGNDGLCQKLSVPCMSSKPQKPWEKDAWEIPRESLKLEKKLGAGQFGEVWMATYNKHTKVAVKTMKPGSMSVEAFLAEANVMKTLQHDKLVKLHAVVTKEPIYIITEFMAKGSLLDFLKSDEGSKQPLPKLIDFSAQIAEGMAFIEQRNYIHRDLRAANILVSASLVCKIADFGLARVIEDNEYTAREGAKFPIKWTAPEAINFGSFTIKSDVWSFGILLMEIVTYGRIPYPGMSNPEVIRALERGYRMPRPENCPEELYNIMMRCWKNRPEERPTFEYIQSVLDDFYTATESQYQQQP
Summary of the method: as §1

CDK2/cyclinA = molecular target: T8, CDK2/cyclinA (Homo sapiens, UniProt P24941); conditions: read-out: percentage of control activity (POC), CDK2/cyclinA
T8 construct: purchased Eurofins Pharma Discovery Services (KinaseProfiler; Cerep BioPrint panel)
Summary of the method: as §1

TrkA = molecular target: T9, TrkA (Homo sapiens, UniProt P04629); conditions: for remaining activity at 10 µM: read-out: percentage of control activity (POC), TrkA
T9 construct: Eurofins Pharma Discovery Services (contract assay service)
T9 sequence (P04629 33-796, species assumed): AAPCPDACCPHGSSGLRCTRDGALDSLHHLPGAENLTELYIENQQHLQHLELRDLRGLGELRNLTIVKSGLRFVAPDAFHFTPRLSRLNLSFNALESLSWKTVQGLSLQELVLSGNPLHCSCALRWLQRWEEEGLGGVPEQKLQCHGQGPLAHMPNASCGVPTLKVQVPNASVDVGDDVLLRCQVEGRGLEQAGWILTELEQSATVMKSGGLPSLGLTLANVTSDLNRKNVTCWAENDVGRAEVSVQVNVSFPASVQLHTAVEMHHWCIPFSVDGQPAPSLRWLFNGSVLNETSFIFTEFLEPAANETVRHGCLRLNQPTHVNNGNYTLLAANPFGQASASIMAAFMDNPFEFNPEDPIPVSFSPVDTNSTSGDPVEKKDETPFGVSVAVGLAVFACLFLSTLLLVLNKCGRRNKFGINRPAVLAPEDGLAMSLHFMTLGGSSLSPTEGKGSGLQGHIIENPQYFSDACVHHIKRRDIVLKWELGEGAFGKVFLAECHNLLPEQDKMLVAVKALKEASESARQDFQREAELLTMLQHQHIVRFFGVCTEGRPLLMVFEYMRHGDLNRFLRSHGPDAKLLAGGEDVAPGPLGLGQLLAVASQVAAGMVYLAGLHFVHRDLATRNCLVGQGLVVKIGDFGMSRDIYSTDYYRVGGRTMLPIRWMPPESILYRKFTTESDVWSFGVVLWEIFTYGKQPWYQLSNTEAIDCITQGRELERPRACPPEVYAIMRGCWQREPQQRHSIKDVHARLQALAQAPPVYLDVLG
Summary of the method: as §1

FGFR3 = molecular target: T10, FGFR3 (Homo sapiens, UniProt P22607); conditions: read-out: percentage of control activity (POC), FGFR3
T10 construct: purchased Eurofins Pharma Discovery Services (KinaseProfiler; Cerep BioPrint panel)
T10 sequence (P22607 23-806): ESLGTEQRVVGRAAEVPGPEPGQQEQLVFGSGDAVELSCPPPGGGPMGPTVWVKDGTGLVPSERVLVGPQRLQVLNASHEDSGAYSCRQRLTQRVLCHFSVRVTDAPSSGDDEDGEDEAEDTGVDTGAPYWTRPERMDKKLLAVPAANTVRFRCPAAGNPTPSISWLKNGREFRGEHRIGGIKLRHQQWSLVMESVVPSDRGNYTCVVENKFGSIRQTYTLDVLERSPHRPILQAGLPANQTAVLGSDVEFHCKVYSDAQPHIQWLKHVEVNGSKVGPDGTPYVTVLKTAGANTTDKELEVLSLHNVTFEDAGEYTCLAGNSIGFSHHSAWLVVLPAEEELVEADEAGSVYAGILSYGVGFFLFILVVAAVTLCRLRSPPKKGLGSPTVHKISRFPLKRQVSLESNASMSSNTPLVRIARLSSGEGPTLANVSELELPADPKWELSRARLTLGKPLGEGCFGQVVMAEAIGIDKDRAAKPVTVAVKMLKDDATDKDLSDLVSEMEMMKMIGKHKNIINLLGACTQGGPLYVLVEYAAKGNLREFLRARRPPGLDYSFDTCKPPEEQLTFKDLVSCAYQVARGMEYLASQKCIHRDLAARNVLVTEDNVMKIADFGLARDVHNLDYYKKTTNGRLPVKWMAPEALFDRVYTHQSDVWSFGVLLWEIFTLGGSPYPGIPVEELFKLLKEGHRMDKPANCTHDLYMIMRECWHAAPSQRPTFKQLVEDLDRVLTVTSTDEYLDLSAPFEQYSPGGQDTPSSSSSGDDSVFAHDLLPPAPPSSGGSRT
Summary of the method: as §1

PKBα = molecular target: T11, PKBα (Homo sapiens, UniProt P31749); conditions: read-out: percentage of control activity (POC), PKBα
T11 construct: purchased Eurofins Pharma Discovery Services (KinaseProfiler; Cerep BioPrint panel)
T11 sequence (P31749 whole entry): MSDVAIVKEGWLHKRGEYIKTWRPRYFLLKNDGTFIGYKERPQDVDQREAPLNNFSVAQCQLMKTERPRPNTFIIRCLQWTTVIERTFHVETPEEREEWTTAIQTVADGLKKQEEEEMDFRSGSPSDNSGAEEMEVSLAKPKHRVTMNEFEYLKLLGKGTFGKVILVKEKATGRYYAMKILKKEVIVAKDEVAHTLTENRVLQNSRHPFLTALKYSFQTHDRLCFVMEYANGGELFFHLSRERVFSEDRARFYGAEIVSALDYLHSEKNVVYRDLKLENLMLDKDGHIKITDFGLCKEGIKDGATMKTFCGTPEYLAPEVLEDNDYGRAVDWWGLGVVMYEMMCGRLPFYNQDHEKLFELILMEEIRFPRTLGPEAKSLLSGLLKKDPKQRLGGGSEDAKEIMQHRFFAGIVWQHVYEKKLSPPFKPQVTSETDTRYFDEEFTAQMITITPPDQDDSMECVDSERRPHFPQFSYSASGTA
Summary of the method: as §1

SAPK4 = molecular target: T12, SAPK4 (Homo sapiens, UniProt O15264); conditions: read-out: percentage of control activity (POC), SAPK4
T12 construct: purchased Eurofins Pharma Discovery Services (KinaseProfiler; Cerep BioPrint panel)
T12 sequence (O15264 1-365): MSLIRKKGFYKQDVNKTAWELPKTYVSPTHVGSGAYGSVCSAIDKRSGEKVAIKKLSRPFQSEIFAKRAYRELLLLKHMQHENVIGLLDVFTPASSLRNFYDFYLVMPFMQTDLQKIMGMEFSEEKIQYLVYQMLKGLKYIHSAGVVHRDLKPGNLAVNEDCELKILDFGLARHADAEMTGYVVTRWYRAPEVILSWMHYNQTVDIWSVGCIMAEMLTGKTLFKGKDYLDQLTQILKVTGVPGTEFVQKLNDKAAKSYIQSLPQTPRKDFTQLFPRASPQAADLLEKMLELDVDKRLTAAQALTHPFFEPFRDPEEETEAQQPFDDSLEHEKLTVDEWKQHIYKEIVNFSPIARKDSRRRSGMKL
Summary of the method: as §1

FGFR4 = molecular target: T13, FGFR4 (Homo sapiens, UniProt P22455); conditions: read-out: percentage of control activity (POC), FGFR4
T13 construct: purchased Eurofins Pharma Discovery Services (KinaseProfiler; Cerep BioPrint panel)
T13 sequence (P22455 22-802): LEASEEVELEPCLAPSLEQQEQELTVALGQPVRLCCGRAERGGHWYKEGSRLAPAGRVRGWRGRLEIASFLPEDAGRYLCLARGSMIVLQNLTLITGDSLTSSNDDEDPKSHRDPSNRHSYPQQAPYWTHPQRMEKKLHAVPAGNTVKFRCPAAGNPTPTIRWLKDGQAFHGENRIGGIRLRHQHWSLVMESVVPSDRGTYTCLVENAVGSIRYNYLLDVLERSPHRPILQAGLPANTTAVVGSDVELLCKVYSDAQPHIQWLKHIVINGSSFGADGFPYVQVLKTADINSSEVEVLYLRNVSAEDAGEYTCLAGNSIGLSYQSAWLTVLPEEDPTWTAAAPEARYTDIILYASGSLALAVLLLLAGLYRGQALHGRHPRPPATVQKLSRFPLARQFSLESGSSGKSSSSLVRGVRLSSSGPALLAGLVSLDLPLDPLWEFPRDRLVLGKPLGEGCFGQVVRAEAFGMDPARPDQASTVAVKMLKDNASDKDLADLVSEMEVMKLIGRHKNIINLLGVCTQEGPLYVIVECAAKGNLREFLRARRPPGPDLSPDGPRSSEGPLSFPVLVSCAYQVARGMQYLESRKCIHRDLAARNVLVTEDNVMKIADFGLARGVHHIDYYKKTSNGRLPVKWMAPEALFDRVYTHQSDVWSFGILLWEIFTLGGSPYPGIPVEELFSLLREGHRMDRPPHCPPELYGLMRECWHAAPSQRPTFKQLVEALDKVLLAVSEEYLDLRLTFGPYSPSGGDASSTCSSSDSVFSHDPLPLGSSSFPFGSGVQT
Summary of the method: as §1

PKCβII = molecular target: T14, PKCβII (Homo sapiens, UniProt P05771); conditions: read-out: percentage of control activity (POC), PKCβII
T14 construct: purchased Eurofins Pharma Discovery Services (KinaseProfiler; Cerep BioPrint panel)
T14 sequence (P05771 1-673 isoform P05771-2): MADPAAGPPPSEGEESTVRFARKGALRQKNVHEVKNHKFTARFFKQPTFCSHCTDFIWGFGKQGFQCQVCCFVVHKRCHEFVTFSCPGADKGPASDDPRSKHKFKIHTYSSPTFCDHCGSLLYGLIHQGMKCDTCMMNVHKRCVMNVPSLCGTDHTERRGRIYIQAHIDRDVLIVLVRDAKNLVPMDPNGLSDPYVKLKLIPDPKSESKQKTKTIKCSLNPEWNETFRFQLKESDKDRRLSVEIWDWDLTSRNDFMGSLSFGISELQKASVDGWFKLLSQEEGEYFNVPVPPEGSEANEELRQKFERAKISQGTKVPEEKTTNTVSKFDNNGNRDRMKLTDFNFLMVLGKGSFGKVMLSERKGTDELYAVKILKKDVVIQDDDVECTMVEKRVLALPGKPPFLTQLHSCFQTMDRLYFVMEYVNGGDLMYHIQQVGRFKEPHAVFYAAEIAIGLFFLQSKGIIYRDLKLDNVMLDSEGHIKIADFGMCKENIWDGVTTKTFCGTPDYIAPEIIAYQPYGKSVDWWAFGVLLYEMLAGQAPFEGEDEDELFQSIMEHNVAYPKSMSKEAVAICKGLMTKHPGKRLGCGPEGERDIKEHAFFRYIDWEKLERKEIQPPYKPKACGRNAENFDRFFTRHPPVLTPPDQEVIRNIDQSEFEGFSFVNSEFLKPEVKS
Summary of the method: as §1

MKK7β = molecular target: T15, MKK7β (Homo sapiens, UniProt O14733); conditions: read-out: percentage of control activity (POC), MKK7β
T15 construct: purchased Eurofins Pharma Discovery Services (KinaseProfiler; Cerep BioPrint panel)
T15 sequence (O14733 1-419): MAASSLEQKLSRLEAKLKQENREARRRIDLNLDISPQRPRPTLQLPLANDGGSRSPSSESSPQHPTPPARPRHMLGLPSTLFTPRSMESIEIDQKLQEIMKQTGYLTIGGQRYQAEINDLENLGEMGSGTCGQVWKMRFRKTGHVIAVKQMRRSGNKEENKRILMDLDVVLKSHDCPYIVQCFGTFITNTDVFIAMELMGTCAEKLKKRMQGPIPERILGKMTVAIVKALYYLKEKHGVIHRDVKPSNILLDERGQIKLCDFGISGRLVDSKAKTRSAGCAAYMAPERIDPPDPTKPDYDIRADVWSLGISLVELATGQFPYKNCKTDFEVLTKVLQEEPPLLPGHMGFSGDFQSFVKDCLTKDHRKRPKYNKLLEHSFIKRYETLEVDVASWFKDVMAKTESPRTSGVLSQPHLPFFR
Summary of the method: as §1

CaMKI = molecular target: T16, CaMKI (Homo sapiens, UniProt Q14012); conditions: read-out: percentage of control activity (POC), CaMKI
T16 construct: purchased Eurofins Pharma Discovery Services (KinaseProfiler; Cerep BioPrint panel)
T16 sequence (Q14012 whole entry): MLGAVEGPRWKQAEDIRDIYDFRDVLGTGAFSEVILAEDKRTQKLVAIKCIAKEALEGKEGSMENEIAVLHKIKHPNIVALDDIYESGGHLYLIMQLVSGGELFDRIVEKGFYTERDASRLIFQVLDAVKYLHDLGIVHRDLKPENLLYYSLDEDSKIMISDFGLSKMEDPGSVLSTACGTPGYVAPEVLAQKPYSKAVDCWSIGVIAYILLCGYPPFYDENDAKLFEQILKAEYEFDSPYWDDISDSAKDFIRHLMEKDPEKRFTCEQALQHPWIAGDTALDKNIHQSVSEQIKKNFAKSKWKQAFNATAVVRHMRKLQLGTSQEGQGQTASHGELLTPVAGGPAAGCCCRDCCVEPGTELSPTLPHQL
Summary of the method: as §1

Molecule CC(C)(C)N1CCC(c2cc(-c3ccc(F)cc3Cl)c3cc[n+]([O-])c(-c4c(Cl)cccc4Cl)c3n2)CC1 [compound 2] has a remaining activity at 10 µM (Pyk2) of 99%, a remaining activity at 10 µM (IKKβ) of 102% and a remaining activity at 10 µM (eEF-2K) of 115%. The remaining activity at 10 µM (PKA) was 109%, the remaining activity at 10 µM (Flt4; 10 μM) was 108% and the remaining activity at 10 µM (Fyn) was 100%. It also gave a remaining activity at 10 µM (Hck; 10 μM) of 84%, a remaining activity at 10 µM (CDK2/cyclinA) of 105% and a remaining activity at 10 µM (TrkA; 10 μM) of 91%. It also gave a remaining activity at 10 µM (FGFR3) of 99%, a remaining activity at 10 µM (PKBα) of 95% and a remaining activity at 10 µM (SAPK4) of 96%. It also gave a remaining activity at 10 µM (FGFR4) of 88%, a remaining activity at 10 µM (PKCβII) of 117% and a remaining activity at 10 µM (MKK7β) of 110%. For the same molecule, the remaining activity at 10 µM (CaMKI) was 94%.

With Cc1ccc(C(=O)NCC2CC2)cc1-c1ccc2c(c1)NC(=O)C21CCCC1 [compound 3] the remaining activity at 10 µM (Pyk2) was 99%, the remaining activity at 10 µM (IKKβ) was 107% and the remaining activity at 10 µM (eEF-2K) was 111%. It also gave a remaining activity at 10 µM (PKA) of 99%, a remaining activity at 10 µM (Flt4; 10 μM) of 78% and a remaining activity at 10 µM (Fyn) of 97%. For the same molecule, the remaining activity at 10 µM (Hck; 10 μM) was 87%, the remaining activity at 10 µM (CDK2/cyclinA) was 101% and the remaining activity at 10 µM (TrkA; 10 μM) was 67%. The remaining activity at 10 µM (FGFR3) was 92%, the remaining activity at 10 µM (PKBα) was 91% and the remaining activity at 10 µM (SAPK4) was 94%. It also gave a remaining activity at 10 µM (FGFR4) of 91%, a remaining activity at 10 µM (PKCβII) of 103% and a remaining activity at 10 µM (MKK7β) of 116%. It also gave a remaining activity at 10 µM (CaMKI) of 95%.

Molecule Cn1cc(-c2cccc(-c3nc(C(=O)NC4C5CC6CC4CC(O)(C6)C5)c(N)nc3N)c2)cn1 (centres unmarked) [compound 4] has a remaining activity at 10 µM (Pyk2) of 86%, a remaining activity at 10 µM (IKKβ) of 95% and a remaining activity at 10 µM (eEF-2K) of 115%. For the same molecule, the remaining activity at 10 µM (PKA) was 100%, the inhibition at 10 µM (Flt4; 10 μM, read-out: inhibition of Ftl4) was 80% and the remaining activity at 10 µM (Flt4; 10 μM) was 20%. It also gave an IC50 (Flt4; biochemical dose response, duplicate, read-out: Inhibition of indicated activity (IC50, μM): Ftl4) of 3.13 µM, a remaining activity at 10 µM (Fyn) of 81% and an inhibition at 10 µM (Hck; 10 μM) of 53%. It also gave a remaining activity at 10 µM (Hck; 10 μM) of 47%, an IC50 (Hck; biochemical dose response, duplicate, read-out: Inhibition of indicated activity (IC50, μM): Hck) of 3.58 µM and a remaining activity at 10 µM (CDK2/cyclinA) of 91%. The inhibition at 10 µM (TrkA; 10 μM) was 86%, the remaining activity at 10 µM (TrkA; 10 μM) was 14% and the IC50 (TrkA; biochemical dose response, duplicate, read-out: Inhibition of indicated activity (IC50, μM): TrkA) was 3.23 µM. For the same molecule, the remaining activity at 10 µM (FGFR3) was 88%, the remaining activity at 10 µM (PKBα) was 96% and the remaining activity at 10 µM (SAPK4) was 88%. For the same molecule, the remaining activity at 10 µM (FGFR4) was 86%, the remaining activity at 10 µM (PKCβII) was 110% and the remaining activity at 10 µM (MKK7β) was 101%. The remaining activity at 10 µM (CaMKI) was 87%.

CS(=O)(=O)N1CCN(c2ccc(Nc3ncc(C(N)=O)c(NC4CC4)n3)cc2)CC1 [compound 5] gave a remaining activity at 10 µM (Pyk2) of 4%, a remaining activity at 10 µM (IKKβ) of 8% and a remaining activity at 10 µM (eEF-2K) of 97%. For the same molecule, the remaining activity at 10 µM (PKA) was 26%, the remaining activity at 10 µM (Flt4; 10 μM) was 0% and the remaining activity at 10 µM (Fyn) was 10%. The remaining activity at 10 µM (Hck; 10 μM) was 7%, the remaining activity at 10 µM (CDK2/cyclinA) was 78% and the remaining activity at 10 µM (TrkA; 10 μM) was 1%. The remaining activity at 10 µM (FGFR3) was 8%, the remaining activity at 10 µM (PKBα) was 86% and the remaining activity at 10 µM (SAPK4) was 32%. The remaining activity at 10 µM (FGFR4) was 73%, the remaining activity at 10 µM (PKCβII) was 80% and the remaining activity at 10 µM (MKK7β) was 7%. It also gave a remaining activity at 10 µM (CaMKI) of 28%.

For COc1c(NC(=O)c2ccc(C)c(-c3nnc4c(NCC(C)(C)C)nccn34)c2)cc(C(C)(C)C)cc1NS(C)(=O)=O [compound 7, reference compound], the remaining activity at 10 µM (Pyk2) was 87%, the remaining activity at 10 µM (IKKβ) was 127% and the remaining activity at 10 µM (eEF-2K) was 128%. For the same molecule, the remaining activity at 10 µM (PKA) was 109%, the remaining activity at 10 µM (Flt4; 10 μM) was 88% and the remaining activity at 10 µM (Fyn) was 99%. It also gave a remaining activity at 10 µM (Hck; 10 μM) of 84%, a remaining activity at 10 µM (CDK2/cyclinA) of 105% and a remaining activity at 10 µM (TrkA; 10 μM) of 68%. The remaining activity at 10 µM (FGFR3) was 97%, the remaining activity at 10 µM (PKBα) was 99% and the remaining activity at 10 µM (SAPK4) was 81%. It also gave a remaining activity at 10 µM (FGFR4) of 89%, a remaining activity at 10 µM (PKCβII) of 113% and a remaining activity at 10 µM (MKK7β) of 112%. For the same molecule, the remaining activity at 10 µM (CaMKI) was 108%.
